# Data reported in publication PMC5201133 (Journal of medicinal chemistry, 2016).
# Entries after “also recorded” stand apart in the source; their conditions may differ. Where two headings read alike, the source gives them in different places. Marks after values point to notes of the source that are not given here.
# Legend:
# [1] = molecular target: A2AAR; conditions: rat (r), archival data ref 22, 24–27, cited from earlier work
# [2] = molecular target: A1AR; conditions: read-out: A1AR Ki; rat (r); archival data ref 22, 24–27; cited from earlier work
# [3] = molecular target: A3AR; conditions: read-out: A3AR Ki; rat (r); archival data ref 22, 24–27; cited from earlier work
# [4] = molecular target: T1, A3AR (Homo sapiens, UniProt P0DMS8); conditions: read-out: A3AR Ki, archival data ref 22, 24–27; cited from earlier work
# T1 sequence (P0DMS8 1-318): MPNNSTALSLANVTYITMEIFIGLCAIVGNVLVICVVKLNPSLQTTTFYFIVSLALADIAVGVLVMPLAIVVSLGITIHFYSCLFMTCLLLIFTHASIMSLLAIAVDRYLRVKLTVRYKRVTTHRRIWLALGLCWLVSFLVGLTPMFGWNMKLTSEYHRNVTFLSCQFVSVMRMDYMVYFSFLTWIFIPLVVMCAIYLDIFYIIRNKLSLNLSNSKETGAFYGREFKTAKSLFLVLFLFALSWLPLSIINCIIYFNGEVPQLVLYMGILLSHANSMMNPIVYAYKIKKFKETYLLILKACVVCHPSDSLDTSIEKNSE
# [5] = molecular target: T2, 5HT2CR (Homo sapiens, UniProt P28335); experiment: 5HT2CR functional calcium mobilization assay; assay type: cell-based; conditions: 10 µM; result in words
# T2 sequence (P28335 33-458): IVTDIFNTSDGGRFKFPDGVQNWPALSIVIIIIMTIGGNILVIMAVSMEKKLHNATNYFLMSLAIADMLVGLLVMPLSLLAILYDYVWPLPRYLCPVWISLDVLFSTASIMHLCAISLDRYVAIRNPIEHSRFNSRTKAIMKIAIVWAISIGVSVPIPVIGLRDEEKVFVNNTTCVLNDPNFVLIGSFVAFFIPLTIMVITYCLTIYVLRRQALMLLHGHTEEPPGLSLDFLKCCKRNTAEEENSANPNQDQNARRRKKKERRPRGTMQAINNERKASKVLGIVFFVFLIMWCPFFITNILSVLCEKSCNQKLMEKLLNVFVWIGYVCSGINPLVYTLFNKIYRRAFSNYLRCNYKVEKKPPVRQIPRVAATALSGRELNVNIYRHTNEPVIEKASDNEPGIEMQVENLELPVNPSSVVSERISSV
# [6] = molecular target: T3, 5HT2AR (Homo sapiens, UniProt P28223); experiment: 5HT2AR functional calcium mobilization assay; assay type: cell-based; conditions: 10 µM; result in words
# T3 sequence (P28223 whole entry): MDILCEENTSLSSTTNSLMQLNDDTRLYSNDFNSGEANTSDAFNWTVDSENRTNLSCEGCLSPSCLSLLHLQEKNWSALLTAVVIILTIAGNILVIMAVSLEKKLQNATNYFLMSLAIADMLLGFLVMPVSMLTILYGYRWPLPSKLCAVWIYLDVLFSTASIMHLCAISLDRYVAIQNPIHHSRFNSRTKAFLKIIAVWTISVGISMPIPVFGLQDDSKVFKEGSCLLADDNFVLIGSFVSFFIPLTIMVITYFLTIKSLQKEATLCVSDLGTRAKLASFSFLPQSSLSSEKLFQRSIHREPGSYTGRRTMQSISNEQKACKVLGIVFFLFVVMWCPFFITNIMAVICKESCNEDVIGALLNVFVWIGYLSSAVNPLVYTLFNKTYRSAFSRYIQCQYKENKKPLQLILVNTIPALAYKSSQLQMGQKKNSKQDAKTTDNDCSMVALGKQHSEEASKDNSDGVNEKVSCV
# [7] = tested on: 5 CYP isozymes (A2, 2C9, 2C19, 2D6, 3A4); experiment: Inhibition of 5 CYP isozymes; assay type: in vitro ADME; conditions: human
# [8] = molecular target: T4, 5HT2BR (Homo sapiens, UniProt P41595); assay type: cell-based
# T4 sequence (P41595 whole entry): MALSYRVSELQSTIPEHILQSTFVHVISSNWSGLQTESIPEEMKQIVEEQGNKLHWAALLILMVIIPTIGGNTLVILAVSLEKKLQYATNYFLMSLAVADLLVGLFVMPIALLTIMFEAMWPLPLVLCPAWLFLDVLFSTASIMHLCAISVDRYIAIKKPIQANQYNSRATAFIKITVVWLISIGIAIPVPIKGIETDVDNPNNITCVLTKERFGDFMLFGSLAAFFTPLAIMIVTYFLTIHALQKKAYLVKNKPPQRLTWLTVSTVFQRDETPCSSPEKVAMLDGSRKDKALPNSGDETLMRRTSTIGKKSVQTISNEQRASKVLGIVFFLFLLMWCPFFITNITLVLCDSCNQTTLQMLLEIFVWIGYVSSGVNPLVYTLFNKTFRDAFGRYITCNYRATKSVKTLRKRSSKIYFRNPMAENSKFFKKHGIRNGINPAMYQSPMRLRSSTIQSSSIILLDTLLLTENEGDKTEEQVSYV
# [9] = Stability in human plasma; assay type: in vitro ADME; conditions: for remaining at 2 h: human, plasma, Stability in plasma, % remaining at 120 min
# [10] = Cytotoxicity in HepG2 cells; assay type: cell-based; conditions: human
# [11] = CACO cell permeability; assay type: in vitro ADME; conditions: human
# [12] = molecular target: T4, 5HT2BR; assay type: binding
# [13] = tested on: CACO-2 cells; experiment: CACO cell permeability; assay type: in vitro ADME; conditions: CACO-2 cells
# [14] = molecular target: T1, A3AR; experiment: A3AR binding, [125I]46
# [15] = molecular target: human 5HT5AR (Homo sapiens, UniProt P47898); experiment: 5HT5AR binding; conditions: result in words
# Chain of human 5HT5AR (P47898 whole entry): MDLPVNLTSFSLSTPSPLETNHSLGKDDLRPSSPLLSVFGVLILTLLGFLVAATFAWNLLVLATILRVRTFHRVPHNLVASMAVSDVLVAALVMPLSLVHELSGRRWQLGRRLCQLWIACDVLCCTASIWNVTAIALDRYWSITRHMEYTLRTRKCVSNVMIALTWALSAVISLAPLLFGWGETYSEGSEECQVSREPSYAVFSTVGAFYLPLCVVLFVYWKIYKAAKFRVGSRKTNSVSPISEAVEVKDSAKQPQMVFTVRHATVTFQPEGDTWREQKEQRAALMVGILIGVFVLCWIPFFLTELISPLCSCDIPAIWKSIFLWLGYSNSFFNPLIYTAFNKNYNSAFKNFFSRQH
# [16] = molecular target: T5, A1AR (Homo sapiens, UniProt P30542); experiment: A1AR binding, [3H]N6-phenylisopropyladenosine 45
# T5 sequence (P30542 1-326): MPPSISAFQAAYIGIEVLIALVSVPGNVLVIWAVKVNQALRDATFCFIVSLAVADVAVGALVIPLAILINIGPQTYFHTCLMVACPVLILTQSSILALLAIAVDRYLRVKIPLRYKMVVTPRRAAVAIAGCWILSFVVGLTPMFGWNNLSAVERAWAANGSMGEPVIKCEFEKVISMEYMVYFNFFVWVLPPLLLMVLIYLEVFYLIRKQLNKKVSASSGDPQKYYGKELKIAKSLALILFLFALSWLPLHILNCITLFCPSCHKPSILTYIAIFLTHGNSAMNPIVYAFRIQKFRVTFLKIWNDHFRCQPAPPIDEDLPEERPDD
# [17] = molecular target: hA2AAR (Homo sapiens, UniProt P29274); experiment: A2AAR binding, [3H]47, HEK293 cell membranes; conditions: read-out: A2AAR % inhibition
# Chain of hA2AAR (P29274 whole entry): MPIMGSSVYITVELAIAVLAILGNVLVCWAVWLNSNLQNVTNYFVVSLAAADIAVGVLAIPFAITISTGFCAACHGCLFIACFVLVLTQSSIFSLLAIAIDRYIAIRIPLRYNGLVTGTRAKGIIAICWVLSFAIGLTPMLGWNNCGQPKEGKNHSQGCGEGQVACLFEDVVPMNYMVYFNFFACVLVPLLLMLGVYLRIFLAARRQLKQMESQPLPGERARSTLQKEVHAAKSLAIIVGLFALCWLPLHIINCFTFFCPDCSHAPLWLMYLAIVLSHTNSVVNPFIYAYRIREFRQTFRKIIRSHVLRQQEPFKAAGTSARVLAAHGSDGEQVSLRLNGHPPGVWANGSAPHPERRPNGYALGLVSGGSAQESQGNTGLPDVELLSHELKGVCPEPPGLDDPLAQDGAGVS
# [18] = molecular target: T3, 5HT2AR; experiment: 5HT2AR radioligand binding, [3H]ketanserin, HEKT cell membranes; conditions: read-out: 5HT2AR % inhibition
# [19] = molecular target: T2, 5HT2CR; experiment: 5HT2CR radioligand binding, [3H]mesulergine 44, Flp IN HEK cell membranes; conditions: 5HT2CR Ki, mean ± SEM; ^d n = 1
# [20] = molecular target: T2, 5HT2CR; conditions: read-out: 5HT2CR Ki; archival data ref 8, 9, 22, 24–27; cited from earlier work
# [21] = molecular target: T3, 5HT2AR; conditions: inhibition of binding at 10 µM; archival data ref 9, 22, 24–27; cited from earlier work
structure (smiles),measurement,setting,value
OC[C@H]1O[C@@H](n2cnc3c(NC(C4CC4)C4CC4)ncnc32)[C@H](O)[C@@H]1O [compound 6],Ki,[1]; read-out: A2AAR Ki,1370 nM
"CNC(=O)[C@H]1O[C@@H](n2cnc3c(N)ncnc32)[C@H](O)[C@@H]1O [compound 7, reference compound]",Ki,[2],84 nM
Nc1nc(Cl)nc2c1ncn2[C@H]1[C@H](O)[C@H](O)[C@]2(CO)C[C@H]12 [compound 12],Ki,[3],85 nM
same,Ki,[2],273 nM
CNc1nc(Cl)nc2c1ncn2[C@H]1[C@H](O)[C@H](O)[C@]2(CO)C[C@H]12 [compound 13],Ki,[4],23 nM
same,A2AAR % inhibition,[1]; inhibition of binding at 10 µM,<10% (r) ^c
same,Ki,[2],1470 nM
"OC[C@@]12C[C@@H]1[C@@H](n1cnc3c(NC(C4CC4)C4CC4)nc(Cl)nc31)[C@H](O)[C@@H]2O [compound 14, (1R,2R,3S,4R,5S)-4-(2-Chloro-6-((dicyclopropylmethyl)amino)-9H-purin-9-yl)-1-(hydroxymethyl)bicyclo[3.1.0]hexane-2,3-diol]",agonist activity at 5HT2CR,[5],no appreciable agonist or partial agonist activity
same,agonist or antagonist activity at 5HT2AR,[6],no activity as agonist or antagonist
"CNC(=O)[C@@]12C[C@@H]1[C@@H](n1cnc3c(NC(C4CC4)C4CC4)nc(Cl)nc31)[C@H](O)[C@@H]2O [compound 23, (1S,2R,3S,4R,5S)-4-(2-Chloro-6-((dicyclopropylmethyl)amino)-9H-purin-9-yl)-2,3-dihydroxy-N-methylbicyclo[3.1.0]hexane-1-carboxamide]",IC50,[7],> 30000 nM
same,agonist activity at 5HT2BR,[8],no appreciable agonist or partial agonist activity
same,agonist activity at 5HT2CR,[5],no appreciable agonist or partial agonist activity
same,agonist or antagonist activity at 5HT2AR,[6],no activity as agonist or antagonist
same,"Stability in plasma, % remaining at 120 min, Human",[9],104%
same,remaining at 2 h,[9],~100%
same,CC50,[10],> 30000 nM
same,Papp B→A,[11]; Caco-2,46.2 ×10⁻⁶ cm/s
same,Papp A→B,"[11]; Caco-2, Papp, A->B, CACO-2 cells",4.73 ×10⁻⁶ cm/s
"COC(=O)[C@@]12C[C@@H]1[C@@H](n1cnc3c(NC(C4CC4)C4CC4)nc(Cl)nc31)[C@H](O)[C@@H]2O [compound 25, Methyl (1S,2R,3S,4R,5S)-4-(2-Chloro-6-((dicyclopropylmethyl)amino)-9H-purin-9-yl)-2,3-dihydroxybicyclo[3.1.0]hexane-1-carboxylate]",IC50,[7],≥ 20000 nM
same,agonist activity at 5HT2BR,"[8]; 10 µM, result in words",no appreciable agonist or partial agonist activity
same,ligand efficiency (LE) in 5HT2BR binding,[12],0.37
same,agonist activity at 5HT2CR,[5],no appreciable agonist or partial agonist activity
same,agonist or antagonist activity at 5HT2AR,[6],no activity as agonist or antagonist
same,"Stability in plasma, % remaining at 120 min, Human",[9],95.3%
same,remaining at 2 h,[9],~100%
same,CC50,[10],> 30000 nM
same,"Papp, A->B",[13],18.47 10^−6 cm/sec
"CCOC(=O)[C@@]12C[C@@H]1[C@@H](n1cnc3c(NC(C4CC4)C4CC4)nc(Cl)nc31)[C@H](O)[C@@H]2O [compound 26, Ethyl (1S,2R,3S,4R,5S)-4-(2-chloro-6-((dicyclopropylmethyl)amino)-9H-purin-9-yl)-2,3-dihydroxybicyclo[3.1.0]hexane-1-carboxylate]",agonist activity at 5HT2BR,[8],did not display significant; also recorded: no appreciable agonist or partial agonist activity
same,agonist activity at 5HT2CR,[5],did not display significant; also recorded: no appreciable agonist or partial agonist activity
same,agonist or antagonist activity at 5HT2AR,[6],did not display significant agonist or antagonist activity; also recorded: no activity as agonist or antagonist
"CCOC(=O)[C@@]12C[C@@H]1[C@@H](n1cnc3c(N(C)C)nc(Cl)nc31)[C@H](O)[C@@H]2O [compound 29, Ethyl (1S,2R,3S,4R,5S)-4-(2-chloro-6-(dimethylamino)-9H-purin-9-yl)-2,3-dihydroxybicyclo[3.1.0]hexane-1-carboxylate]",affinity at the A3AR,[14]; result in words,no measurable affinity
"CN(C)c1nc(Cl)nc2c1ncn2[C@H]1[C@H](O)[C@H](O)[C@]2(C(=O)O)C[C@H]12 [compound 30, (1S,2R,3S,4R,5S)-4-(2-Chloro-6-(dimethylamino)-9H-purin-9-yl)-2,3-dihydroxybicyclo [3.1.0]hexane-1-carboxylic acid]",binding at the human 5HT5AR,[15],bound weakly
"NCCNC(=O)[C@@]12C[C@@H]1[C@@H](n1cnc3c(NC(C4CC4)C4CC4)nc(Cl)nc31)[C@H](O)[C@@H]2O [compound 31, (1S,2R,3S,4R,5S)-N-(2-Aminoethyl)-4-(2-chloro-6-((dicyclopropylmethyl)amino)-9H-purin-9-yl)-2,3-dihydroxybicyclo[3.1.0]hexane-1-carboxamide]",Ki,[12],630 ± 146 nM
same,Ki,[16],2580 ± 1220 nM
same,inhibition at 10 µM,[17],23 ± 5%
same,inhibition at 10 µM,[18],< 10%
same,Ki,[14],8110 ± 1270 nM
same,Ki,[19],142 ± 1 nM
"NCCCNC(=O)[C@@]12C[C@@H]1[C@@H](n1cnc3c(NC(C4CC4)C4CC4)nc(Cl)nc31)[C@H](O)[C@@H]2O [compound 32, (1S,2R,3S,4R,5S)-N-(3-Aminopropyl)-4-(2-chloro-6-((dicyclopropylmethyl)amino)-9H-purin-9-yl)-2,3-dihydroxybicyclo[3.1.0]hexane-1-carboxamide]",Ki,[12],1120 ± 310 nM
same,inhibition at 10 µM,[16]; read-out: A1AR % inhibition,45 ± 4%
same,inhibition at 10 µM,[17],26 ± 5%
same,inhibition at 10 µM,[18],< 10%
same,inhibition at 10 µM,[14]; read-out: A3AR % inhibition,55 ± 1%
same,Ki,[19],137 ± 19 nM
CNC(=O)[C@@]12C[C@@H]1[C@@H](n1cnc3c(NCc4cccc(Cl)c4)nc(Cl)nc31)[C@H](O)[C@@H]2O [compound 35],Ki,[20],168 ± 47 nM
same,5HT2AR % inhibition,[21],35%
CNC(=O)[C@@]12C[C@@H]1[C@@H](n1cnc3c(N(C)C)nc(C#Cc4ccc(Cl)s4)nc31)[C@H](O)[C@@H]2O [compound 42],reduction of A3AR affinity,[14]; 39 vs. 42,34 fold
